ChEMBL document CHEMBL5550210, “Discovery of Novel α,β-Unsaturated Amide Derivatives as Candidate Antifungals to Overcome Fungal Resistance” (J Med Chem, 2024)
Values after ≈ are worked out from the molar mass of the structure shown. Active and inactive are the calls of the source. The calls are words filed in the database; no cut-off is given here.

Legend:
Candida albicans [1] = experiment: Antifungal activity against fluconazole-resistant Candida albicans 904 assessed as downregulation of EFG1 gene expression at 16 ug/ml incubated for 12 hrs by RT-PCR analysis; assay type: functional, organism-based; settings: dose 16.0 µg/ml
[2] = Half life in mouse plasma measured at 180 mins; assay type: ADME, cell-free
[3] = molecular target: T1, Lanosterol 14-alpha demethylase (Candida albicans (strain SC5314 / ATCC MYA-2876) (Yeast), UniProt P10613); experiment: Inhibition of CYP51 in Candida albicans SC5314 assessed as increase in lanosterol level at 0.031 ug/ml incubated for 24 hrs by GC-MS analysis relative to control; settings: at 0.031 µg/mL
T1 sequence (P10613 whole entry): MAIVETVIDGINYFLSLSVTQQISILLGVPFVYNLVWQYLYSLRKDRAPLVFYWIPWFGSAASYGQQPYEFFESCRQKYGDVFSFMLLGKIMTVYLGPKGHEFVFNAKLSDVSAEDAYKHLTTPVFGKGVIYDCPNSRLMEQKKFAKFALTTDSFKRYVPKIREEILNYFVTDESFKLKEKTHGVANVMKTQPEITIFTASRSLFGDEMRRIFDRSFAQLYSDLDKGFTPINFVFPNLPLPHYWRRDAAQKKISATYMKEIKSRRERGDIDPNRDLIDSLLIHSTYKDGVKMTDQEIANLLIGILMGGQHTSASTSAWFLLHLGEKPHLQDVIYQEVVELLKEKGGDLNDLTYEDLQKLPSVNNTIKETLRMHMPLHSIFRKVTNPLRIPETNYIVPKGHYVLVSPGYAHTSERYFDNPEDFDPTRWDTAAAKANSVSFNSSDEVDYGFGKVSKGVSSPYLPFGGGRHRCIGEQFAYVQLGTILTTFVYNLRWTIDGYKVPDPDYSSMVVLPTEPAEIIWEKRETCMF

[4] = Acute toxicity in Kunming mouse assessed as change in body weight at 1000 mg/kg,po administrated for 7 days; assay type: organism-based; settings: in vivo, 168 h, time 7 day
[5] = Tmax in Sprague-Dawley rat at 5 mg/kg,po by LC-MS/MS analysis; assay type: ADME, organism-based; settings: in vivo
Nakaseomyces glabratus = experiment: Antifungal activity against Candida glabrata assessed as inhibition of fungal growth by CLSI protocol based microdilution method; assay type: functional
[6] = Half life in Sprague-Dawley rat at 2 mg/kg,iv by LC-MS/MS analysis; assay type: ADME, organism-based; settings: in vivo
Candida albicans [7] = experiment: Antifungal activity against fluconazole-resistant Candida albicans 904 assessed as downregulation of ALS3 gene expression at 16 ug/ml incubated for 12 hrs by RT-PCR analysis; assay type: functional, organism-based; settings: dose 16.0 µg/ml
Candida albicans [8] = experiment: Antifungal activity against fluconazole-resistant Candida albicans 904 infected ICR mouse model assessed as median survival time at 20 mg/kg,ip administration for 14 days; assay type: functional; settings: time 14 day
Candida albicans [9] = experiment: Antifungal activity against Candida albicans CPCC400616 assessed as inhibition of hyphae formation at 2 ug/ml incubated for 4 hrs by inverted microscopic analysis; assay type: functional, organism-based; settings: dose 2.0 µg/ml
[10] = Clearance in Sprague-Dawley rat at 2 mg/kg,iv by LC-MS/MS analysis; assay type: ADME, organism-based; settings: in vivo
[11] = MRTinfinity in Sprague-Dawley rat at 2 mg/kg,iv by LC-MS/MS analysis; assay type: ADME, organism-based; settings: in vivo
Candida albicans [12] = experiment: Antifungal activity against fluconazole-resistant Candida albicans 904 infected ICR mouse model assessed as median survival time at 10 mg/kg,ip administration for 14 days; assay type: functional; settings: time 14 day
[13] = Subacute toxicity in Kunming mouse assessed as behavioral change at 100 mg/kg,po administrated once daily for 14 days; assay type: organism-based; settings: in vivo, 336 h, time 14 day
Candida albicans [14] = experiment: Antifungal activity against fluconazole-resistant Candida albicans 904 infected ICR mouse model assessed as reduction in fungal burden in kidney at 10 to 20 mg/kg,ip administration for 5 days; assay type: functional, organism-based; settings: dose 10-20 mg/kg, time 5.0 day
[15] = Acute toxicity in Kunming mouse assessed as animal death at 1000 mg/kg,po administrated for 7 days; assay type: organism-based; settings: in vivo, 168 h, time 7 day
Candida albicans [16] = experiment: Antifungal activity against Candida albicans SC5314 assessed as fungal cell membrane injury at 16 ug/ml incubated for 24 hrs by transmission electron microscopic analysis; assay type: functional, organism-based; settings: dose 16.0 µg/ml
[17] = Oral bioavailability in Sprague-Dawley rat at 5 mg/kg by LC-MS/MS analysis; assay type: ADME, organism-based; settings: in vivo
Candida parapsilosis = experiment: Antifungal activity against Candida parapsilosis ATCC 22019 assessed as inhibition of fungal growth by CLSI protocol based microdilution method; assay type: functional; settings: Lodderomyces parapsilosis
[18] = Acute toxicity in Kunming female mouse assessed as kidney damage at 100 mg/kg,po administrated for 7 days by hematoxylin and eosin staining based microscopic analysis; assay type: organism-based; settings: in vivo, 168 h, time 7 day
[19] = Acute toxicity in Kunming male mouse assessed as liver damage at 100 mg/kg,po administrated for 7 days by hematoxylin and eosin staining based microscopic analysis; assay type: organism-based; settings: in vivo, 168 h, time 7 day
[20] = Acute toxicity in Kunming female mouse assessed as liver damage at 100 mg/kg,po administrated for 7 days by hematoxylin and eosin staining based microscopic analysis; assay type: organism-based; settings: in vivo, 168 h, time 7 day
[21] = AUC (0 to infinity) in Sprague-Dawley rat at 2 mg/kg,iv by LC-MS/MS analysis; assay type: ADME, organism-based; settings: in vivo
[22] = Subacute toxicity in Kunming mouse assessed as animal death at 100 mg/kg,po administrated once daily for 14 days; assay type: organism-based; settings: in vivo, 336 h, time 14 day
[23] = MRTinfinity in Sprague-Dawley rat at 5 mg/kg,po by LC-MS/MS analysis; assay type: ADME, organism-based; settings: in vivo
Candida albicans [24] = experiment: Antifungal activity against Candida albicans SC5314 assessed as leakage of endogenous substances at 16 ug/ml incubated for 24 hrs by transmission electron microscopic analysis; assay type: functional, organism-based; settings: dose 16.0 µg/ml
[25] = Acute toxicity in Kunming mouse assessed as increase in body weight at 100 mg/kg,po administrated once daily for 14 days; assay type: organism-based; settings: in vivo, 336 h, time 14 day
Cryptococcus neoformans = experiment: Antifungal activity against Cryptococcus neoformans CGMCC2.3161 assessed as inhibition of fungal growth by CLSI protocol based microdilution method; assay type: functional
Candida albicans [26] = experiment: Antifungal activity against Candida albicans CPCC400616 assessed as inhibition of fungal growth by CLSI protocol based microdilution method; assay type: functional
Candida albicans [27] = experiment: Antifungal activity against fluconazole-resistant Candida albicans 904 assessed as downregulation of ERG11 gene expression at 16 ug/ml incubated for 16 hrs by RT-PCR analysis; assay type: functional, organism-based; settings: dose 16.0 µg/ml
Candida albicans [28] = experiment: Antifungal activity against fluconazole-resistant Candida albicans 904 assessed as downregulation of TEC1 gene expression at 16 ug/ml incubated for 12 hrs by RT-PCR analysis; assay type: functional, organism-based; settings: dose 16.0 µg/ml
[29] = Metabolic stability in mouse liver microsomes assessed as half life; assay type: ADME, Microsome
Candida albicans [30] = experiment: Antifungal activity against Candida albicans SC5314 infected ICR mouse model assessed as reduction in fungal burden in kidney at ip administration for 5 days; assay type: functional, organism-based; settings: time 5.0 day
Candida albicans [31] = experiment: Antifungal activity against Candida albicans CPCC400616 assessed as inhibition of fungal biofilm formation incubated for 24 hrs by XTT assay; assay type: functional, organism-based
[32] = AUC (0 to infinity) in Sprague-Dawley rat at 5 mg/kg,po by LC-MS/MS analysis; assay type: ADME, organism-based; settings: in vivo
[33] = Acute toxicity in Kunming mouse assessed as behavioral change at 1000 mg/kg,po administrated for 7 days; assay type: organism-based; settings: in vivo, 168 h, time 7 day
Candida albicans [34] = experiment: Antifungal activity against fluconazole-resistant Candida albicans 904 assessed as inhibition of hyphae formation at 16 ug/ml incubated for 4 hrs by inverted microscopic analysis; assay type: functional, organism-based; settings: dose 16.0 µg/ml
Candida albicans [35] = experiment: Fungicidal activity against fluconazole-resistant Candida albicans 904 assessed as reduction in colony forming units at 32 times MIC incubated for 24 hrs by time-kill curve assay; assay type: functional
[36] = Acute toxicity in Kunming male mouse assessed as kidney damage at 100 mg/kg,po administrated for 7 days by hematoxylin and eosin staining based microscopic analysis; assay type: organism-based; settings: in vivo, 168 h, time 7 day
[37] = molecular target: T1, Lanosterol 14-alpha demethylase; experiment: Inhibition of CYP51 in Candida albicans SC5314 assessed as increase in eburicol level at 0.031 ug/ml incubated for 24 hrs by GC-MS analysis relative to control; settings: at 0.031 µg/mL
[38] = Half life in Sprague-Dawley rat at 5 mg/kg,po by LC-MS/MS analysis; assay type: ADME, organism-based; settings: in vivo
[39] = Volume of distribution at steady state in Sprague-Dawley rat at 2 mg/kg,iv by LC-MS/MS analysis; assay type: ADME, organism-based; settings: in vivo, read-out: Vdss
Candida albicans [40] = experiment: Antifungal activity against fluconazole-resistant Candida albicans 904 assessed as downregulation of CDR2 gene expression at 16 ug/ml incubated for 16 hrs by RT-PCR analysis; assay type: functional, organism-based; settings: dose 16.0 µg/ml

CCCCNC(=O)/C=C/c1ccc(COC(Cn2ccnc2)c2ccc(Cl)cc2Cl)cc1 (centres undefined)
Activity (Candida albicans [1]): Active
half-life [2]: > 6 h
inhibition (INH) [3]: Active
Activity [4]: Non-Toxic
Tmax [5]: 1 h
MIC (Nakaseomyces glabratus): 4 µg/mL (≈ 8.47 µM)
half-life [6]: 1.72 h
Activity (Candida albicans [7]): Active
MST (Candida albicans [8]): 13.52 days
Activity (Candida albicans [9]): Active
clearance [10]: 23.7 mL/min/kg
MRT inf [11]: 1.24 h
MST (Candida albicans [12]): 10 days
Activity [13]: Non-Toxic
Activity (Candida albicans [14]): Active
Activity [15]: Non-Toxic
Activity (Candida albicans [16]): Active
bioavailability [17]: 12.8%
MIC (Candida parapsilosis): 0.06 µg/mL (≈ 0.127 µM)
Activity [18]: Non-Toxic
Activity [19]: Toxic
Activity [20]: Toxic
AUC(0-inf) [21]: 1410 ng·h/mL
Activity [22]: Non-Toxic
MRT inf [23]: 1.93 h
Activity (Candida albicans [24]): Active
Activity [25]: Toxic
MIC (Cryptococcus neoformans): 0.5 µg/mL (≈ 1.06 µM)
MIC (Candida albicans [26]): 0.03 µg/mL (≈ 0.0635 µM)
Activity (Candida albicans [27]): Active
Activity (Candida albicans [28]): Active
half-life [29]: 1 h
Activity (Candida albicans [30]): Dose-Dependent Effect
Activity (Candida albicans [31]): Dose-Dependent Effect
AUC(0-inf) [32]: 452 ng·h/mL
Activity [33]: Non-Toxic
Activity (Candida albicans [34]): Active
Activity (Candida albicans [35]): 2 log10CFU/ml
Activity [36]: Toxic
inhibition (INH) [37]: Active
half-life [38]: 1.23 h
Vd [39]: 1.76 L/kg
Activity (Candida albicans [40]): Active

O=C(/C=C/c1ccc(COC(Cn2ccnc2)c2ccc(Cl)cc2Cl)cc1)Nc1ccc(Cl)cc1Cl (centres undefined)
Activity (Candida albicans [1]): Active
half-life [2]: > 6 h
inhibition (INH) [3]: Active
MIC (Nakaseomyces glabratus): 1 µg/mL (≈ 1.78 µM)
Activity (Candida albicans [7]): Active
Activity (Candida albicans [9]): Active
MIC (Candida parapsilosis): 0.06 µg/mL (≈ 0.107 µM)
MIC (Cryptococcus neoformans): 0.5 µg/mL (≈ 0.891 µM)
MIC (Candida albicans [26]): 0.06 µg/mL (≈ 0.107 µM)
Activity (Candida albicans [27]): Active
Activity (Candida albicans [28]): Active
half-life [29]: 0.493 h
Activity (Candida albicans [31]): Dose-Dependent Effect
Activity (Candida albicans [34]): Active
inhibition (INH) [37]: Active
Activity (Candida albicans [40]): Active
